This passage reports inhibition and Activity results from ChEMBL document CHEMBL2010795, “Anti-inflammatory and anti-arthritic effects of new synthetic 3-(4-hydroxyphenyl)-4-(4-thiomethoxyphenyl)-1H-pyrrole-2,5-dione” (2012).

In assay [1] the test system is Rattus norvegicus. Nature of the assay: Antiinflammatory activity in rat assessed as inhibition of carrageenan-induced hind paw edema at 50 mg/kg, po administered 1 hr before carrageenan challenge measured up to 5 hrs by plethysmometer. It counts as functional, organism-based. Also on record: dose 50 mg/kg.
Assay [2] deals with RAW264.7. Nature of the assay: Inhibition of LPS-induced IL-1 beta mRNA expression in mouse RAW264.7 cells at 10 to 40 uM treated 1 hr before LPS challenge measured after 24 hrs by RT-PCR analysis. It counts as functional, cell-based.
Assay [3] has as its target T1, Prostaglandin G/H synthase 1 (Ovis aries) (UniProt P05979).
T1 sequence (whole entry): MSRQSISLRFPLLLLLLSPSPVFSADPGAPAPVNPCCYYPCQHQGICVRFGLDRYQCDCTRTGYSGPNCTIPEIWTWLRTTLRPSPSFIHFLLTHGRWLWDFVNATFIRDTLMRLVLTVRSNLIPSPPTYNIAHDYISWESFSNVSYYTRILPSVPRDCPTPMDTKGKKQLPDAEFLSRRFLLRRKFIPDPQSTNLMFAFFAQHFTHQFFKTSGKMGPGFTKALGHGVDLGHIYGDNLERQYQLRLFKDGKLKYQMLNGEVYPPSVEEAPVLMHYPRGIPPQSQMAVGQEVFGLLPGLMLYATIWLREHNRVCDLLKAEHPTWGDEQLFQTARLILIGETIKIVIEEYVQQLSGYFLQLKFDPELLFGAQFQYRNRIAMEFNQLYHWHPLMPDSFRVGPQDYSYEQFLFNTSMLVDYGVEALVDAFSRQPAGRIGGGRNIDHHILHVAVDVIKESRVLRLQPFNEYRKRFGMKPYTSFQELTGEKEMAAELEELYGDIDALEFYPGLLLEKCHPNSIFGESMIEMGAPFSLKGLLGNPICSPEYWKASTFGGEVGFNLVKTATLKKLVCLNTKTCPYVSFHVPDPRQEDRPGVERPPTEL
In words: Inhibition of ovine recombinant COX1 assessed as PGF2alpha production at 0.1 to 40 uM preincubated for 10 mins before substrate addition by EIA.

Assay [4] has as its system RAW264.7. In words: Inhibition of iNOS protein expression in mouse RAW264.7 cells assessed as reduction in NO production by Western blot analysis. The class given is functional, cell-based.
For assay [5], the system named is Rattus norvegicus. Nature of the assay: Antiarthritic activity in Freund's complete adjuvant-induced Sprague-Dawley rat arthritis model at 25 mg/kg, po administered daily on day 9 to day 19 post challenge. It counts as functional, organism-based. Also on record: dose 25 mg/kg.
The test system of assay [6] is Rattus norvegicus. In words: Antiarthritic activity in Freund's complete adjuvant-induced Sprague-Dawley rat arthritis model assessed as inhibition of ankle swelling at 25 to 50 mg/kg, po administered daily on day 9 to day 19 post challenge. It counts as functional, organism-based.
Assay [7] relates to RAW264.7. Nature of the assay: Inhibition of LPS-induced iNOS mRNA expression in mouse RAW264.7 cells assessed as reduction in NO production at 10 to 40 uM treated 1 hr before LPS challenge measured after 4 hrs by RT-PCR analysis. The class given is functional, cell-based.
In assay [8] the test system is RAW264.7. In words: Effect on COX-1 protein expression in LPS-stimulated mouse RAW264.7 cells. The class given is functional, cell-based.
Assay [9] deals with Rattus norvegicus. In words: Antiarthritic activity in Freund's complete adjuvant-induced Sprague-Dawley rat arthritis model at 50 mg/kg, po administered daily on day 9 to day 19 post challenge. It counts as functional, organism-based. Also on record: dose 50 mg/kg.
In assay [10] the test system is RAW264.7. Nature of the assay: Inhibition of LPS-induced PGE2 production in mouse RAW264.7 cells treated 1 hr before LPS challenge measured after 24 hrs by EIA. The class given is functional, cell-based.
In assay [11] the test system is Rattus norvegicus. In words: Antiarthritic activity in Freund's complete adjuvant-induced Sprague-Dawley rat arthritis model assessed as reduction in paw volume at 50 mg/kg, po administered daily on day 9 to day 19 post challenge. The class given is functional. Also on record: scale not given: the % may be the effect or the level left.
Assay [12] has as its system RAW264.7. In words: Inhibition of LPS-induced IL-6 mRNA expression in mouse RAW264.7 cells at 10 to 40 uM treated 1 hr before LPS challenge measured after 24 hrs by RT-PCR analysis. It counts as functional, cell-based.
In assay [13] the test system is RAW264.7. Nature of the assay: Effect on COX-1 mRNA expression in LPS-stimulated mouse RAW264.7 cells. The class given is functional, cell-based.
Assay [14] has as its system RAW264.7. Nature of the assay: Effect on COX-2 protein expression in LPS-stimulated mouse RAW264.7 cells at 10 to 40 uM preincubated for 1 hr prior LPS challenge measured after 24 hrs by Western blot analysis. The class given is functional, cell-based.
Assay [15] concerns Rattus norvegicus. In words: Antiarthritic activity in Freund's complete adjuvant-induced Sprague-Dawley rat arthritis model assessed as reduction in IL-6 mRNA expression at 50 mg/kg, po administered daily on day 9 to day 19 post challenge measured on day 20 by RT-PCR analysis. The class given is functional, organism-based. Also on record: dose 50 mg/kg.
Assay [16] has as its system Rattus norvegicus. In words: Antiarthritic activity in Freund's complete adjuvant-induced Sprague-Dawley rat arthritis model assessed as reduction in IL-1beta mRNA expression at 50 mg/kg, po administered daily on day 9 to day 19 post challenge measured on day 20 by RT-PCR analysis. Also on record: dose 50 mg/kg. It counts as functional, organism-based.
In assay [17] the test system is Rattus norvegicus. In words: Antiarthritic activity in Freund's complete adjuvant-induced Sprague-Dawley rat arthritis model assessed as inhibition of erythema at 25 to 50 mg/kg, po administered daily on day 9 to day 19 post challenge. It counts as functional, organism-based.
Assay [18] has as its system Rattus norvegicus. Nature of the assay: Antiinflammatory activity in rat assessed as inhibition of carrageenan-induced hind paw edema at 25 mg/kg, po administered 1 hr before carrageenan challenge measured up to 5 hrs by plethysmometer. The class given is functional, organism-based. Also on record: dose 25 mg/kg.
For assay [19], the system named is RAW264.7. Nature of the assay: Effect on COX-2 mRNA expression in LPS-stimulated mouse RAW264.7 cells at 10 to 40 uM preincubated for 1 hr prior LPS challenge measured after 4 hrs by RT-PCR analysis. The class given is functional, cell-based.
In assay [20] the test system is Rattus norvegicus. In words: Antiarthritic activity in Freund's complete adjuvant-induced Sprague-Dawley rat arthritis model assessed as inhibition of joint dysfunction at 25 to 50 mg/kg, po administered daily on day 9 to day 19 post challenge. It counts as functional, organism-based.
Assay [21] concerns Rattus norvegicus. Nature of the assay: Antiarthritic activity in Freund's complete adjuvant-induced Sprague-Dawley rat arthritis model assessed as reduction in plasma PGE2 levels at 50 mg/kg, po administered daily on day 9 to day 19 post challenge measured after 19 days by EIA. The class given is functional. Also on record: scale not given: the % may be the effect or the level left.

The test system of assay [22] is Rattus norvegicus. Nature of the assay: Antiinflammatory activity in rat assessed as inhibition of carrageenan-induced PGE2 production in hind paw at 25 mg/kg, po administered 1 hr before carrageenan challenge measured up to 5 hrs by EIA. It counts as functional, organism-based. Also on record: dose 25 mg/kg.
Assay [23] deals with RAW264.7. Nature of the assay: Inhibition of LPS-induced nitric oxide production in mouse RAW264.7 cells at 10 to 40 uM treated 1 hr before LPS challenge measured after 24 hrs by Griess method. It counts as functional, cell-based.
Assay [24] concerns Rattus norvegicus. Nature of the assay: Antiinflammatory activity in rat assessed as inhibition of carrageenan-induced myeloperoxidase activity in hind paw at 25 mg/kg, po administered 1 hr before carrageenan challenge measured up to 5 hrs by EIA. Also on record: dose 25 mg/kg. The class given is functional, organism-based.
The target in assay [25] is T2, Prostaglandin G/H synthase 2 (Homo sapiens) (UniProt P35354).
T2 sequence (whole entry): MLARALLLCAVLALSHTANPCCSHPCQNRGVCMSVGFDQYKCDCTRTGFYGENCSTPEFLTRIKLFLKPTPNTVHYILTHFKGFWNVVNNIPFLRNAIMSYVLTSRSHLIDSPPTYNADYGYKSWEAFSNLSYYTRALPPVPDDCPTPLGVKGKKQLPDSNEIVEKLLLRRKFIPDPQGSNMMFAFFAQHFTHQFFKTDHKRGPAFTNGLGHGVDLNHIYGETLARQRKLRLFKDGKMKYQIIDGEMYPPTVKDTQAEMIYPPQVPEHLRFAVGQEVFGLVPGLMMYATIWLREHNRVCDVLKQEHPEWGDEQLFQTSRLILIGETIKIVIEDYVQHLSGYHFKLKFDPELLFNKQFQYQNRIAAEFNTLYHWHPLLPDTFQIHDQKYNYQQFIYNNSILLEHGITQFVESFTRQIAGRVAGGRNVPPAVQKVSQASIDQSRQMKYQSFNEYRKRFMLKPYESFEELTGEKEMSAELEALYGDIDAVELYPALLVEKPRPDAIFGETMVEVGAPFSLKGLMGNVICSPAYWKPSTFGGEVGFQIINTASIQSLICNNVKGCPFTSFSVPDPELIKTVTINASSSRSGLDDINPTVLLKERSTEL
In words: Inhibition of human recombinant COX2 assessed as PGF2alpha production preincubated for 10 mins before substrate addition by EIA.

The subject of assay [26] is RAW264.7. In words: Inhibition of LPS-induced IL-6 production in mouse RAW264.7 cells at 10 to 40 uM treated 1 hr before LPS challenge measured after 24 hrs by EIA. It counts as functional, cell-based.
Assay [27] has as its system RAW264.7. Nature of the assay: Inhibition of LPS-induced IL-1 beta production in mouse RAW264.7 cells at 10 to 40 uM treated 1 hr before LPS challenge measured after 24 hrs by EIA. The class given is functional, cell-based.
The test system of assay [28] is Rattus norvegicus. Nature of the assay: Antiarthritic activity in Freund's complete adjuvant-induced Sprague-Dawley rat arthritis model assessed as inhibition of edema at 25 to 50 mg/kg, po administered daily on day 9 to day 19 post challenge. It counts as functional, organism-based.

Activity calls are given as the source filed them. No cut-off for these calls is given here.

With `CSc1ccc(C2=C(c3ccc(O)cc3)C(=O)NC2=O)cc1`, the inhibition result with Rattus norvegicus [1], in the assay with RAW264.7 [2], in the assay on RAW264.7 [4], with Rattus norvegicus [6], with RAW264.7 [7] and in the assay on RAW264.7 [12] was “Active” throughout. In addition, the inhibition entry in the assay on Rattus norvegicus [17], in the assay on Rattus norvegicus [18], in the assay with Rattus norvegicus [20], with Rattus norvegicus [22], with RAW264.7 [23] and in the assay with Rattus norvegicus [24] was “Active” in each case. For the same compound, the inhibition entry in the assay on RAW264.7 [26], in the assay on RAW264.7 [27] and in the assay on Rattus norvegicus [28] was “Active” in each case. Further, the inhibition result (in assay [3]; with RAW264.7 [8]; in the assay on RAW264.7 [13]; in the assay on RAW264.7 [14]; with RAW264.7 [19]) was “inactive” each time. Also, the outcome in the assay with Rattus norvegicus [5], with Rattus norvegicus [9], in the assay with Rattus norvegicus [15] and with Rattus norvegicus [16] was Active. The inhibition result (in the assay on RAW264.7 [10]; in assay [25]) was “Dose-dependent effect” in each case. Also, the Activity in the assay with Rattus norvegicus [11] was found to be 53%; in the assay with Rattus norvegicus [21], 42%.

In the case of `CC(C)Cc1ccc(C(C)C(=O)O)cc1` (stereo not given), the inhibition result in the assay with Rattus norvegicus [1] was “Active”. Besides, the outcome with Rattus norvegicus [9] was Active.
